Measurements as given in patent publication US6440391B1, “Management of snoring by oral administration of dimethyl sulfone” (Elstan Corporation, priority 2000, dated 2002).
Where “and” joins values, the source holds several entries; their conditions need not be identical. Equal values may be shown once.

What was measured:
[1] = test system: snoring; settings: cited from earlier work
[2] = test system: snoring; test: Oral spray of methylsulfonylmethane solution onto the oropharynx before sleep; snoring observed by subject's mate; assay type: in vivo, human; design: key to Results (relief of snoring): FR = Full Relief; MR = Moderate Relief; NR = No Relief; settings: for Results (relief of snoring): one line per subject
Procedure: The initial experiments to determine effectiveness of the instillation of methylsulfonylmethane as a snoring reduction agent was carried out with an initial sampling of 10 individuals.
In each of the above cases, the subject was instructed to spray the solution containing the methylsulfonylmethane four (4) times into the oropharynx approximately fifteen (15) minutes to thirty (30) minutes prior to retiring for sleep. Each spray contained about 0.2 ml; to 0.25 ml of the solution. Thus, the total amount instilled is about 0.8 ml to […]. The observation of the presence or absence of snoring was made by the subject's mate. The observing party was not told that the subject was employing […] methylsulfonylmethane. As noted in Table I, 70% of the subject's mates reported the lessening or absence of snoring while 30% reported no benefit from the oral administration of the methylsulfonylmethane.
The seven patients who reported full relief or moderate relief where thereafter provided with a saline spray as a placebo without their knowledge. In each case the snoring returned. They were again given the methylsulfonylmethane spray and 70% again achieve full relief.
A second sampling of subjects was undertaken wherein the weight percentage of methylsulfonylmethane in water was varied at 1%, 5% and 10%.
By warming the solution of water and methylsulfonylmethane to no more than about 37° C. (98.6° F.), a greater concentration of methylsulfonylmethane will go into solution.

[3] = 15% MSM, oral spray, 10 individuals (Table I)

CS(C)(=O)=O [MSM, methylsulfonylmethane]
effectiveness of intranasal treatment ([1]; 1% to 20% by weight, drops into the nasal cavity): highly effective | time interval of reduced snoring ([1]; nasal administration saturating mucous membranes of the nasal passageways): 8 to 12 h | local tolerability on nasal instillation ([1]; nasal route, some individuals): slight burning sensation | Results (relief of snoring) ([2]; 1% MSM by weight in water, oral): FR and NR (3×) | relief of snoring at lowest concentration ([2]; 1% by weight in water, oral, Table II): the relief was not reported to be as dramatic as at higher concentrations | effectiveness of concentration range against snoring ([2]; 1%-20% by weight in water, oral, Tables I-III): effective | Results (relief of snoring) ([2]; 5% MSM by weight in water, oral): NR (2×) and FR (2×) | Results (relief of snoring) ([2]; 10% MSM by weight in water, oral): FR (3×) and NR | Results (relief of snoring) ([2]; 15% MSM by weight, oral spray 4 times (0.8-1.2 ml) 15-30 min before sleep): FR (6×) and NR (3×) and MR | subject's mates reporting lessening or absence of snoring [2, 3]: 70% | subject's mates reporting no benefit [2, 3]: 30% | Results (relief of snoring) ([2]; 20% MSM by weight in water, solution warmed to no more than about 37° C., oral): FR | patients again achieving full relief when given the spray again ([2]; the seven responders, re-given MSM spray after saline placebo (snoring returned on placebo)): 70%
